Assay results: patent US10065990B2, “Cyclic peptide compound, and preparation method, pharmaceutical composition and use thereof” (HANGZHOU GUANYU BIO-MEDICAL CO., LTD, priority 2013, dated 2018)
Like-named read-outs stand apart in the source and are kept apart here.

Experiments:
[1] = tested on: SGC-7901 (human gastric cancer cells); assay: MTT cancer cell growth inhibition; type: cell-based; settings: Homo sapiens, SGC-7901, 72 h, MTT, 72 hours incubation, SGC-7901 cells; read-out: GI50 SGC-7901
Method in brief: (§1)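 Cells seeded at 1500/well in DMEM or RPMI 1640 with 10% FBS, incubated overnight, then exposed to compound at 10^−5 to 10^−10 M final in triplicate for 72 h at 37° C, 5% CO2. MTT added for 4 h, formazan dissolved in DMSO, absorbance read at 570 nm; GI50 derived from viability.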

[2] = tested on: U937 (human leukemia cells); assay: MTT cancer cell growth inhibition; type: cell-based; settings: Homo sapiens, U-937, 72 h, MTT, 72 hours incubation, read-out: GI50 U93
Method in brief: as §1

[3] = tested on: HCC827 (human non-small cell lung cancer cells); assay: MTT cancer cell growth inhibition; type: cell-based; settings: Homo sapiens, HCC827, 72 h, MTT, 72 hours incubation, HCC827 cells; read-out: GI50 HCC827
Method in brief: as §1

[4] = tested on: PANC-1 (Pac-1, human pancreatic cancer cells); assay: MTT cancer cell growth inhibition; type: cell-based; settings: Homo sapiens, PANC-1, 72 h, MTT, 72 hours incubation, read-out: GI50 PAN
Method in brief: as §1

[5] = tested on: DU145 (human prostate cancer cells); assay: MTT cancer cell growth inhibition; type: cell-based; settings: Homo sapiens, DU-145, 72 h, MTT, 72 hours incubation, read-out: GI50 Du1
Method in brief: as §1

HDAC11 = biological target: T1, HDAC11 (Homo sapiens, UniProt Q96DB2); assay: HDAC biochemical activity measurement (fluorescent substrate deacetylation);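 further: HDAC11 enzyme acting on an acetyl-lysine fluorogenic substrate, then a developer frees the fluorophore, read at excitation 360 nm and emission 460 nm, IC50 over a compound dilution series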
T1 sequence (Q96DB2 1-347): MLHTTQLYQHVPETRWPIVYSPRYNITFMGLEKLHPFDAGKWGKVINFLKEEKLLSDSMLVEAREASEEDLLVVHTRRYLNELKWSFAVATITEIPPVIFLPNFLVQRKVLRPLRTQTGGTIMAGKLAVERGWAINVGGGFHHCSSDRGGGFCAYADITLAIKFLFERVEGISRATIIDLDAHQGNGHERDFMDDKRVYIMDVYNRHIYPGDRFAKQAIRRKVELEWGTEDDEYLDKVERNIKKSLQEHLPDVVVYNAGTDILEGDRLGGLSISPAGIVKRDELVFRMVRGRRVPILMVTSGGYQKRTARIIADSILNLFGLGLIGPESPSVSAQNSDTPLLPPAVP
Description: (§2) The chemical activity of the compound is determined according to the degree of deacetylation inhibition of the HDAC enzyme. This experiment measured the degree of deacetylation related to tumor proliferation and metastasis of HDAC1, HDAC2, HDAC3, HDAC8, HDAC11 five subtypes HDAC enzymes. After the substrate containing an acetylated lysine side chain and HDAC enzyme are labeled with a fluorescent label, the fluorescent substrate is de acetyl. The fluorescent labeled substrate is cleaved by the enzyme, and the fluorescent substance is released, which generates 460 nm emission light under the excitation of 360 nm light.
(§3) HDAC substrate was diluted with reaction buffer to 200M (reaction concentration of 20M), the HDAC enzyme was diluted to the appropriate concentration, then added different concentrations of the test compounds and acted at 37° C. 30 minutes, and then added the same volume of 2-times concentration substrate developing solution (developer), incubated at room temperature for 15 minutes.

HDAC2 = HDAC2 (Homo sapiens, UniProt Q92769); assay: as above; settings: 37° C. 30 minutes;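 further: HDAC2 enzyme with an acetyl-lysine fluorescent substrate, then developer added, fluorescence read at excitation 360 nm and emission 460 nm, inhibition measured across several compound concentrations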
Description: as §2, §3

HDAC3 = HDAC3 (Homo sapiens, UniProt O15379); assay: as above;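 further: fluorogenic acetyl-lysine substrate (20 µM) deacetylated by HDAC3, then developer added for 15 min at room temperature, release of fluorophore read at excitation 360 nm, emission 460 nm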
Description: as §2, §3

HDAC7 = biological target: T2, HDAC7 (Homo sapiens, UniProt Q8WUI4); assay: as above; settings: HDAC7; 37° C. 30 minutes;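 further: fluorogenic deacetylation assay using acetyl-lysine substrate at 20 µM, enzyme and compound incubated 30 min at 37 °C, then developer added, fluorescence read at 360/460 nm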
T2 sequence (Q8WUI4 1-952): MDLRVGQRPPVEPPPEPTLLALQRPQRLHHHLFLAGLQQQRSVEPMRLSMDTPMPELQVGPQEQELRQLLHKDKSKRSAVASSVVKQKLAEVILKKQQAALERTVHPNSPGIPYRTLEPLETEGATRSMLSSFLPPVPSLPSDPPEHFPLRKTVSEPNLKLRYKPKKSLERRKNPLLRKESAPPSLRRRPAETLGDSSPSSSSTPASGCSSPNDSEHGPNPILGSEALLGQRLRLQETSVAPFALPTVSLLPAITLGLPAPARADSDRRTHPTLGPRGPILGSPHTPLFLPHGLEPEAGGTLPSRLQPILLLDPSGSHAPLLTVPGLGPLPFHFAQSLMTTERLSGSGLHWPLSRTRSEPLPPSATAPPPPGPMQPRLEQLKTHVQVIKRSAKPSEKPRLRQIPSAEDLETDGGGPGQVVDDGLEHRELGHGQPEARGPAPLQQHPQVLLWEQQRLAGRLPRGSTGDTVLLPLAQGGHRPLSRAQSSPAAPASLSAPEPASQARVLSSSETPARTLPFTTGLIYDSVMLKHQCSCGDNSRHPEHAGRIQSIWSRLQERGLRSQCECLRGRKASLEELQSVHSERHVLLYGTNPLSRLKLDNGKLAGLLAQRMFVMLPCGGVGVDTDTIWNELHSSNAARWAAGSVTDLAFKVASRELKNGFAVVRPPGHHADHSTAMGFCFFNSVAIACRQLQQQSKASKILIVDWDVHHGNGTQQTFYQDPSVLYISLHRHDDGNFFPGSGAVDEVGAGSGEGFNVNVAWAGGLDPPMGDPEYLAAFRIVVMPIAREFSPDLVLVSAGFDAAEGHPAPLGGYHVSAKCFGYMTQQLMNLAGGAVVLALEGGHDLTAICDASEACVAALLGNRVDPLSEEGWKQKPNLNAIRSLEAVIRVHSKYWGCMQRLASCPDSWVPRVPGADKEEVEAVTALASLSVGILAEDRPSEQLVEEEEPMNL

HDAC8 = biological target: T3, HDAC8 (Homo sapiens, UniProt Q9BY41); assay: as above; settings: 37° C. 30 minutes
T3 sequence (Q9BY41 1-377): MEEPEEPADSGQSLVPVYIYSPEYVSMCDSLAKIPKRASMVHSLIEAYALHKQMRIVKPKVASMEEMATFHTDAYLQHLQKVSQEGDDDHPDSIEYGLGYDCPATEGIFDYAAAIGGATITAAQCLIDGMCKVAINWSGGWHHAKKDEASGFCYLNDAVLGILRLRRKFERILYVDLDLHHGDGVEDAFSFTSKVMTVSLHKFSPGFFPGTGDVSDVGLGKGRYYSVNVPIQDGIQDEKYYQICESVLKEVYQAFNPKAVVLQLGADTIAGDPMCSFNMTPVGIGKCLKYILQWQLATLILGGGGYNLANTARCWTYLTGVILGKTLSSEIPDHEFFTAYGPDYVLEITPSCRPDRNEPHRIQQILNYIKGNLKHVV

HDAC1 = HDAC1 (Homo sapiens, UniProt Q13547); assay: as above
[6] = HDAC1, 37° C. 30 minutes, read-out: IC50 HDAC1
[7] = Table 3, read-out: IC50 HDAC1, D (non-substituent)
[8] = read-out: IC50 HDAC11, HDAC11, 37° C. 30 minutes
[9] = read-out: IC50 HDAC3, HDAC3, 37° C. 30 minutes
[10] = Table 3, column C, read-out: IC50 HDAC1, C (six-membered ring with substituents)
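Wherever IC50 HDAC1 is given: fluorogenic acetyl-lysine substrate (20 µM) deacetylated by HDAC1, then developer releases fluorophore read at 360 nm excitation and 460 nm emission, inhibitor incubated 30 min at 37 °C.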
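Wherever IC50 HDAC1, C (six-membered ring with substituents) is given: fluorogenic acetyl-lysine substrate (20 µM) deacetylated by HDAC1, then developer releases fluorophore read at 360 nm excitation and 460 nm emission, inhibitor incubated 30 min at 37 °C.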
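Wherever IC50 HDAC1, D (non-substituent) is given: fluorogenic acetyl-lysine substrate (20 µM) deacetylated by HDAC1, then developer releases fluorophore read at 360 nm excitation and 460 nm emission, inhibitor incubated 30 min at 37 °C.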

Sequence of HDAC1 (Q13547 whole entry, species assumed): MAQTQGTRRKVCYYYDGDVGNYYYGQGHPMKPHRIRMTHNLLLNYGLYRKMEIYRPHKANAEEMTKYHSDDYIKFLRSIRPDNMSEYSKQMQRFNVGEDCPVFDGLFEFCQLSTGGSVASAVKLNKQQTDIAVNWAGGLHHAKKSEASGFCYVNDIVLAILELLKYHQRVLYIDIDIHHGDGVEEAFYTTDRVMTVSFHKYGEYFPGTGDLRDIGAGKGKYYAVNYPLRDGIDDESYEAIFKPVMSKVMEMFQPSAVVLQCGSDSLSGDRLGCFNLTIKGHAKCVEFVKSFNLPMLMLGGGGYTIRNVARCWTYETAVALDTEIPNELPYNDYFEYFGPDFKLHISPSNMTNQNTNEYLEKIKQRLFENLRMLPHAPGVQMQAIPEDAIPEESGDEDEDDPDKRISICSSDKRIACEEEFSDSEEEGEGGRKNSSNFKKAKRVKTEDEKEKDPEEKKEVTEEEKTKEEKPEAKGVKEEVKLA
Sequence of HDAC2 (Q92769 whole entry, species assumed): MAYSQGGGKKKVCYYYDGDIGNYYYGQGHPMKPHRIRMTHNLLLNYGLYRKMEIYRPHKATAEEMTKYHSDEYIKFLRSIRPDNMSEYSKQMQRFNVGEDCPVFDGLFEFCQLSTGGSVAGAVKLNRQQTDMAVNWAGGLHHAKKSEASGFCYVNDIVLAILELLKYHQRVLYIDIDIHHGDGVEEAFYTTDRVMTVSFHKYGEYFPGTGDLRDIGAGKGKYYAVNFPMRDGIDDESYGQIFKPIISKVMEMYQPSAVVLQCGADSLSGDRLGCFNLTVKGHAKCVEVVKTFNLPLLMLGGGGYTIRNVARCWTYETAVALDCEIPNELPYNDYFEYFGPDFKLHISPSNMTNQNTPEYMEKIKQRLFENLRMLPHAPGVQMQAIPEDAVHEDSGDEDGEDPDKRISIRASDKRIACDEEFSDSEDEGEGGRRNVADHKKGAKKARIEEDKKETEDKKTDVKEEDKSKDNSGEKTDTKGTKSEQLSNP
Sequence of HDAC3 (O15379 whole entry, species assumed): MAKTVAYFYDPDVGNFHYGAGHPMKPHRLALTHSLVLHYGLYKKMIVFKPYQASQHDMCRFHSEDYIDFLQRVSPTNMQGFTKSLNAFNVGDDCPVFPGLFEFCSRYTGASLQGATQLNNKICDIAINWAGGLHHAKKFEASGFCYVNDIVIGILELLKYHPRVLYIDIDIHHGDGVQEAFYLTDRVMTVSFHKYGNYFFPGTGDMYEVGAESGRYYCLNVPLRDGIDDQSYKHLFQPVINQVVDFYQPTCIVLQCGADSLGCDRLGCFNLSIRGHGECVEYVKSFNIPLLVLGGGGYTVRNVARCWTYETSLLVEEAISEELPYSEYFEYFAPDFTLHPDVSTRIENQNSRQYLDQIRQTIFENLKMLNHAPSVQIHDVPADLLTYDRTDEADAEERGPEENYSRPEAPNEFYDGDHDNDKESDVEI
Sequence of HDAC3 (Q9Y618 395-489 partner limits assumed, species assumed): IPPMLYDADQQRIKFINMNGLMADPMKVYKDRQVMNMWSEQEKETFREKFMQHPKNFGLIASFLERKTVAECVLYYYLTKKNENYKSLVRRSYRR

Structure (SMILES) | GI50 [1] | GI50 [2] | GI50 [3] | GI50 [4] | GI50 [5] | IC50 (HDAC11) | IC50 (HDAC2) | IC50 (HDAC3) | IC50 HDAC7 (HDAC7) | IC50 (HDAC8) | IC50 (HDAC1; [6]) | IC50 (HDAC1; [7]) | IC50 (HDAC11; [8]) | IC50 (HDAC3; [9]) | IC50 (HDAC1; [10]) | GI50 ([2]; U937 cells) | GI50 ([4]; PANC-1 cells) | GI50 ([5]; DU145 cells)
C/C=C1\NC(=O)c2cc(C)cc(n2)CNC(=O)C[C@@H](/C=C/CCSC(C)=O)OC(=O)[C@H](Cc2ccccc2)NC1=O [Example 67] | 37 nM | 30 nM | 84 nM | 80 nM | 30 nM | 92 nM | 34 nM | 28 nM | no activity | 16 nM |  |  |  |  |  |  |  | 
C/C=C1\NC(=O)c2ccc(F)c(n2)CNC(=O)C[C@@H](/C=C/CCSC(C)=O)OC(=O)[C@H](CCCCNC(=O)OCC2c3ccccc3-c3ccccc32)NC1=O [Example 77] | 601 nM | 30 nM | 83 nM | 80 nM | 40 nM | 88 nM | 29 nM | 26 nM | no activity | 37 nM | 94 nM |  |  |  |  |  |  | 
C/C=C1\NC(=O)c2nc(ccc2F)CNC(=O)C[C@@H](/C=C/CCSC(C)=O)OC(=O)[C@H](Cc2cccc3ccccc23)NC1=O [Compound 78] | 62 nM | 60 nM | 72 nM | 70 nM | 40 nM |  | 37 nM |  | no activity | 39 nM | 63 nM |  | 94 nM | 38 nM | 63 nM |  |  | 
C/C=C1\NC(=O)c2cc(F)cc(n2)CNC(=O)C[C@@H](/C=C/CCSC(C)=O)OC(=O)[C@H](Cc2ccc(O)cc2)NC1=O [Example 82] | 48 nM | 50 nM | 81 nM | 80 nM | 30 nM | 92 nM | 49 nM | 53 nM | no activity | 34 nM | 94 nM |  |  |  |  |  |  | 
C/C=C1\NC(=O)c2nc(ccc2F)CNC(=O)C[C@@H](/C=C/CCSC(C)=O)OC(=O)[C@H](Cc2ccc(O)cc2)NC1=O [Compound 81] | 59 nM | 40 nM | 51 nM | 50 nM | 20 nM |  | 31 nM |  | no activity | 26 nM | 37 nM |  | 95 nM | 16 nM | 37 nM |  |  | 
C=C1NC(=O)c2nc(ccc2F)CNC(=O)C[C@@H](/C=C/CCSC(C)=O)OC(=O)[C@H](C(C)C)NC1=O [Compound 84] | 43 nM | 50 nM | 73 nM | 70 nM | 30 nM |  | 43 nM |  | no activity | 29 nM | 42 nM |  | 91 nM | 29 nM | 42 nM |  |  | 
C/C=C1\NC(=O)c2cc(F)cc(n2)CNC(=O)C[C@@H](/C=C/CCSC(C)=O)OC(=O)[C@H](Cc2cccc3ccccc23)NC1=O [Example 79] | 51 nM | 60 nM | 91 nM | 90 nM | 20 nM | 93 nM | 19 nM | 27 nM | no activity | 42 nM | 57 nM |  |  |  |  |  |  | 

Compounds with a lower GI50 [1], results first:

GI50 [1] | GI50 [2] | GI50 [3] | GI50 [4] | GI50 [5] | IC50 (HDAC11) | IC50 (HDAC2) | IC50 (HDAC3) | IC50 HDAC7 (HDAC7) | IC50 (HDAC8) | IC50 (HDAC1; [6]) | IC50 (HDAC1; [7]) | IC50 (HDAC11; [8]) | IC50 (HDAC3; [9]) | IC50 (HDAC1; [10]) | GI50 ([2]; U937 cells) | GI50 ([4]; PANC-1 cells) | GI50 ([5]; DU145 cells) | Structure (SMILES)
28 nM |  | 33 nM | 30 nM |  | 100 nM | 158 nM | 145 nM | no activity | 169 nM | 171 nM | 171 nM |  |  |  |  |  |  | C/C=C1\NC(=O)c2cccc(n2)CNC(=O)C[C@@H](/C=C/CCSC(=O)CCCCC)OC(=O)[C@H](C(C)C)NC1=O [Compound 3]
26 nM |  | 42 nM | 30 nM |  |  | 163 nM |  | no activity | 252 nM | 192 nM | 192 nM | 102 nM | 177 nM |  |  |  |  | C/C=C1\NC(=O)c2cccc(n2)CNC(=O)C[C@@H](/C=C/CCSC(=O)CCCCCC)OC(=O)[C@H](C(C)C)NC1=O [Compound 2]
29 nM | 50 nM | 67 nM | 60 nM | 30 nM |  | 35 nM |  | no activity | 43 nM | 31 nM |  | 94 nM | 41 nM | 31 nM |  |  |  | CC(=O)SCC/C=C/[C@@H]1CC(=O)NCc2cc(F)cc(n2)C(=O)NC(=C(C)C)C(=O)N[C@@H](C(C)C)C(=O)O1 [Compound 88]
23 nM |  | 27 nM |  |  | 97 nM | 31 nM | 37 nM | no activity | 39 nM |  |  |  |  |  | 10 nM | 40 nM | 60 nM | C/C=C1\NC(=O)c2ccc(SC)c(n2)CNC(=O)C[C@@H](/C=C/CCSC(=O)CCCCCCC)OC(=O)[C@H](CC)NC1=O [Compound 173]
